# From BindingDB's records for doi:10.1021/jm960873x (University of California, 1997)
# Legend:
# [1] = Observed inhibition activity of the compounds against protein phosphatases 1 (PP1)
# [2] = Observed inhibition activity against protein phosphatase 1 (PP1)
# [3] = Inhibition activity against protein phosphatase 1 (PP1), activity taken from literature
Structure (SMILES),IC50 [1] [nM],IC50 [2] [nM],IC50 [3] [nM]
COC[C@@H]([C@H](O)[C@H](O)C(=O)N[C@H](C)C[C@H](C)c1nc(/C=C/CC2O[C@]3(CC(O)C2C)OC([C@H](C[C@H](O)[C@H](C)[C@H](O)[C@H](C)/C=C(C)/C(C)=C/C=C/C(C)=C\C#N)OC)[C@H](OP(=O)(O)O)C3(C)C)co1)N(C)C (some centres undefined) [Calyculin C],1.5,,
"C/C=C1/C(=O)N[C@@H](C(=O)O)[C@H](C)C(=O)N[C@@H](CCCNC(=N)N)C(=O)N[C@@H](/C=C/C(C)=C/[C@H](C)[C@H](Cc2ccccc2)OC)[C@H](C)C(=O)N[C@@H](C(=O)O)CCC(=O)N1C [(5R,6S,9S,12S,13S,16R)-2-Eth-(Z)-ylidene-9-(3-guanidino-propyl)-12-((1E,3E)-(5S,6S)-6-methoxy-3,5-dimethyl-7-phenyl-hepta-1,3-dienyl)-1,6,13-trimethyl-3,7,10,14,19-pentaoxo-1,4,8,11,15pentaaza-cyclononadecane-5,16-dicarboxylic acid]",,0.42,3
CO[C@H]([C@H](O)CC(=O)[C@@H](C)[C@@H](O)CC[C@@H](C)[C@@H]1O[C@]2(CC[C@@H](C)[C@H](CC[C@H](C)C(C)=O)O2)CC[C@@H]1C)[C@H](OC(=O)C[C@@H](O)C1=C(C)C(=O)OC1=O)C(C)C [TAUTOMYCIN],0.67,,
